Source: PubChem BioAssay AID212 (DTP/NCI, 2004)
Where “and” joins values, the source holds several entries; their conditions need not be identical. Equal values may be shown once. Inconclusive results are not listed.

System: BDF1 mice, colon carcinoma 38 sc, T/C %
Assay: NCI In Vivo Anticancer Drug Screen. Data for tumor model Colon Carcinoma 38 (subcutaneous) in B6D2F1 (BDF1) mice
Procedure, shortened: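 Compound antitumor activity was assessed in mice carrying transplantable tumors. Survival or tumor size was recorded, and each value is the treated-group measurement divided by that of the vehicle-treated control group.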

Question: Which T/C (endpoint: median tumor weight (est.), dose: 3.12 mg/kg/injection, schedule: Q07DX002 (ip), vehicle: distilled water + Tween-80, higher = larger tumour) does the source give for `NC(Cc1ccc(N(CCCl)Cc2ccccc2)cc1)C(=O)O` (centres undefined) here?
Answer: 69 % of control and 90 % of control

Question: What about the T/C (endpoint: median tumor weight (est.), dose: 6.25 mg/kg/injection, schedule: Q07DX002 (ip), vehicle: distilled water + Tween-80, higher = larger tumour) of the same compound?
Answer: 108 % of control

Question: What about the T/C (endpoint: median tumor weight (est.), dose: 12.5 mg/kg/injection, schedule: Q07DX002 (ip), vehicle: distilled water + Tween-80, higher = larger tumour) of the same compound?
Answer: 51 % of control and 70 % of control

Question: What about the T/C (endpoint: median tumor weight (est.), dose: 25.0 mg/kg/injection, schedule: Q07DX002 (ip), vehicle: distilled water + Tween-80, higher = larger tumour) of the same compound?
Answer: 109 % of control and 108 % of control

Question: What about the T/C (endpoint: median tumor weight (est.), dose: 50.0 mg/kg/injection, schedule: Q07DX002 (ip), vehicle: distilled water + Tween-80, higher = larger tumour) of the same compound?
Answer: 72 % of control and 92 % of control

Question: For `CC(=O)C1(O)Cc2c(O)c3c(c(O)c2C(OC2CC(N)C(O)C(C)O2)C1)C(=O)c1ccccc1C3=O` (centres undefined), which T/C (endpoint: median survival time, dose: 1.4 mg/kg/injection, schedule: Q07DX002 (iv), vehicle: saline, higher = longer survival) is on record?
Answer: 118 % of control

Question: And the T/C (endpoint: median tumor weight (est.), dose: 0.37 mg/kg/injection, schedule: Q07DX002 (ip), vehicle: saline, higher = larger tumour)?
Answer: 66 % of control

Question: And the T/C (endpoint: median tumor weight (est.), dose: 0.75 mg/kg/injection, schedule: Q07DX002 (ip), vehicle: saline, higher = larger tumour)?
Answer: 67 % of control

Question: Which T/C (endpoint: median survival time, dose: 0.75 mg/kg/injection, schedule: Q04DX004 (ip), vehicle: saline, higher = longer survival) does the source give for `NC(=O)c1[nH]nc(C2OC(CO)C(O)C2O)c1O` (centres undefined) here?
Answer: 77 % of control and 79 % of control

Question: What about the T/C (endpoint: median survival time, dose: 1.5 mg/kg/injection, schedule: Q04DX004 (ip), vehicle: saline, higher = longer survival) of the same compound?
Answer: 90 % of control and 105 % of control

Question: What about the T/C (endpoint: median survival time, dose: 3.0 mg/kg/injection, schedule: Q04DX004 (ip), vehicle: saline, higher = longer survival) of the same compound?
Answer: 63 % of control and 65 % of control

Question: And the T/C (endpoint: median survival time, dose: 6.0 mg/kg/injection, schedule: Q04DX004 (ip), vehicle: saline, higher = longer survival)?
Answer: 59 % of control

Question: What about the T/C (endpoint: median survival time, dose: 12.0 mg/kg/injection, schedule: Q04DX004 (ip), vehicle: saline, higher = longer survival) of the same compound?
Answer: 43 % of control

Question: And the T/C (endpoint: median tumor weight (est.), dose: 0.31 mg/kg/injection, schedule: Q07DX003 (ip), vehicle: saline, higher = larger tumour)?
Answer: 117 % of control

Question: And the T/C (endpoint: median tumor weight (est.), dose: 0.62 mg/kg/injection, schedule: Q07DX003 (ip), vehicle: saline, higher = larger tumour)?
Answer: 90 % of control

Question: What about the T/C (endpoint: median tumor weight (est.), dose: 1.25 mg/kg/injection, schedule: Q07DX003 (ip), vehicle: saline, higher = larger tumour) of the same compound?
Answer: 97 % of control

Question: And the T/C (endpoint: median tumor weight (est.), dose: 4.32 mg/kg/injection, schedule: Q04DX004 (ip), vehicle: saline, higher = larger tumour)?
Answer: 81 % of control

Question: What about the T/C (endpoint: median tumor weight (est.), dose: 5.0 mg/kg/injection, schedule: Q07DX002 (ip), vehicle: saline, higher = larger tumour) of the same compound?
Answer: 100 % of control

Question: And the T/C (endpoint: median tumor weight (est.), dose: 5.0 mg/kg/injection, schedule: Q07DX003 (ip), vehicle: saline, higher = larger tumour)?
Answer: 93 % of control

Question: And the T/C (endpoint: median tumor weight (est.), dose: 7.2 mg/kg/injection, schedule: Q04DX004 (ip), vehicle: saline, higher = larger tumour)?
Answer: 61 % of control

Question: And the T/C (endpoint: median tumor weight (est.), dose: 10.0 mg/kg/injection, schedule: Q07DX002 (ip), vehicle: saline, higher = larger tumour)?
Answer: 86 % of control

Question: What about the T/C (endpoint: median tumor weight (est.), dose: 10.0 mg/kg/injection, schedule: Q07DX003 (ip), vehicle: saline, higher = larger tumour) of the same compound?
Answer: 82 % of control

Question: And the T/C (endpoint: median tumor weight (est.), dose: 12.0 mg/kg/injection, schedule: Q04DX004 (ip), vehicle: saline, higher = larger tumour)?
Answer: 17 % of control

Question: With `Nc1nc2c(ncn2C2OC(CO)C(O)C2O)c(=O)[nH]1` (centres undefined) as the compound, how does the T/C (endpoint: median tumor weight (est.), dose: 100.0 mg/kg/injection, schedule: Q07DX002 (ip), vehicle: suspension in saline, higher = larger tumour) read?
Answer: 100 % of control

Question: What about the T/C (endpoint: median tumor weight (est.), dose: 200.0 mg/kg/injection, schedule: Q07DX002 (ip), vehicle: suspension in saline, higher = larger tumour) of the same compound?
Answer: 117 % of control

Question: What about the T/C (endpoint: median tumor weight (est.), dose: 400.0 mg/kg/injection, schedule: Q07DX002 (ip), vehicle: suspension in saline, higher = larger tumour) of the same compound?
Answer: 94 % of control

Question: What about the T/C (endpoint: median tumor weight (est.), dose: 800.0 mg/kg/injection, schedule: Q07DX002 (ip), vehicle: suspension in saline, higher = larger tumour) of the same compound?
Answer: 105 % of control

Question: And the T/C (endpoint: median tumor weight (est.), dose: 1600.0 mg/kg/injection, schedule: Q07DX002 (ip), vehicle: suspension in saline, higher = larger tumour)?
Answer: 90 % of control

Question: What does the source list for `NCC1CCC(C(=O)O)CC1` (centres undefined)?
Answer: T/C (endpoint: median tumor weight (est.), dose: 25.0 mg/kg/injection, schedule: Q07DX002 (ip), vehicle: saline with Tween-80, higher = larger tumour): 83 % of control; T/C (endpoint: median tumor weight (est.), dose: 50.0 mg/kg/injection, schedule: Q07DX002 (ip), vehicle: saline with Tween-80, higher = larger tumour): 104 % of control; T/C (endpoint: median tumor weight (est.), dose: 100.0 mg/kg/injection, schedule: Q07DX002 (ip), vehicle: saline with Tween-80, higher = larger tumour): 99 % of control; T/C (endpoint: median tumor weight (est.), dose: 200.0 mg/kg/injection, schedule: Q07DX002 (ip), vehicle: saline with Tween-80, higher = larger tumour): 102 % of control

Question: `CCCCCC[C@H]([C@H](C)O)n1cnc2c(N)ncnc21` was tested. Which T/C (endpoint: median survival time, dose: 22.0 mg/kg/injection, schedule: Q02DX006 (iv), vehicle: saline, higher = longer survival) did it give?
Answer: 113 % of control

Question: And the T/C (endpoint: median survival time, dose: 36.0 mg/kg/injection, schedule: Q02DX006 (iv), vehicle: saline, higher = longer survival)?
Answer: 111 % of control

Question: What about the T/C (endpoint: median survival time, dose: 58.0 mg/kg/injection, schedule: Q02DX006 (iv), vehicle: saline, higher = longer survival) of the same compound?
Answer: 92 % of control

Question: What about the T/C (endpoint: median survival time, dose: 93.0 mg/kg/injection, schedule: Q02DX006 (iv), vehicle: saline, higher = longer survival) of the same compound?
Answer: 115 % of control

Question: And the T/C (endpoint: median tumor weight (est.), dose: 6.25 mg/kg/injection, schedule: Q07DX002 (ip), vehicle: Klucel (hydroxypropylcellulose) (HPC), higher = larger tumour)?
Answer: 91 % of control

Question: What about the T/C (endpoint: median tumor weight (est.), dose: 12.5 mg/kg/injection, schedule: Q07DX002 (ip), vehicle: Klucel (hydroxypropylcellulose) (HPC), higher = larger tumour) of the same compound?
Answer: 194 % of control

Question: What about the T/C (endpoint: median tumor weight (est.), dose: 100.0 mg/kg/injection, schedule: Q07DX002 (ip), vehicle: Klucel (hydroxypropylcellulose) (HPC), higher = larger tumour) of the same compound?
Answer: 117 % of control and 103 % of control
